Data reported in patent US10072021B2, “Compound for inhibiting binding between DX2 protein and P14/ARF protein, and pharmaceutical composition for treating or preventing cancer disease containing same as effective ingredient” (PUSAN NATIONAL UNIVERSITY INDUSTRY-UNIVERSITY COOPERATION …, priority 2014, dated 2018).

Columns and labels:
lung tumors of DK mice = assay: In vivo anticancer effect in DK mice (lung tumors); conditions: DK mice, non-toxic dose of Adriamycin, FIG. 10B
Protocol: All experimental procedures using laboratory animals were approved by the animal care committee of Pusan National University. DX2 (C57/BL6) and K-RasLA2 (C57/BL6) mice were obtained from Dr. Kim, Sung-Hoon and Professor. Choi, Kang-Ryeol (Yonsei University), respectively, and double Tg mice were obtained by cross-breeding of DX2 and K-RasLA2 mice. Before experiment, all mice were maintained under temperature- and light-controlled conditions (20-23° C., 12 h/12 h light/dark cycle), and provided autoclaved food and water.
Every weeks, tumor volume and body weight were measured.
After dissection of mice, tissues were fixed using 10% formalin (in PBS) for 24 hours, and embedded in paraffin blocks according to a basic tissue processing procedure. For histological analysis, embedded tissues were cut for […] by Leica microtome (Wetzlar, Germany) and transferred onto adhesive-coated slides (Marienfeld laboratory glassware, Germany). After deparaffin and rehydration, sections were then stained with H&E for routine examination.
For IHC staining, rehydrated tissue sections were incubated with antibodies to Ki-67 (Abcam, ab15580), pan-keratin (Sigma, C2931), pro-surfactant C (Millipore, AB3786), NSE (DAKO, IS612), and HER2/Neu (DAKO, A0458) for a reaction. Antigen retrieval was performed using 10 mM sodium citrate (pH 6.0) twice at a temperature of 95° C. for 10 minutes each, and endogenous peroxidase activity was blocked with 3% […] for 10 min. Then, the slides were dehydrated following a standard procedure and sealed with cover glass using mounting solution. TUNEL reaction was done as described in the manual for In Situ Cell Death Detection Kit, POD (Hoffmann-La Roche Ltd, Basel, Swizerland).
To evaluate tumor incidence, lung tissues of each mouse was fixed and embedded in paraffin. 5 sections from each mouse were examined by 3 independent investigator, who counted tumor. In addition, tumor area was calculated by tumor occupied area in total lung area using photoshop software.

H446 xenograft = tested on: H446 xenograft
Protocol: DK (5 month-old, N=6) mice were administered with carrier, SLCB050 (5 or 10 mg/kg), Adriamycin (1, 2.5, or 5 mg/kg), and a combination of SLCB050 and Adriamycin by intraperitoneal (i.p.) injection. After termination of the experiment of each group, mice were dissected and isolated lung tissues. For xenograft, 1×10^7 H446 cells (ATCC) were seeded in nude ice. After 4 weeks, tumor bearing mice were injected with Adriamycin, […], or a combination thereof for 6 weeks. Every weeks, tumor volume and body weight were measured.

[1] = tested on: H128 cells (SCLC cell line); assay: MTT viability of H128 cells; type: cell-based, human; conditions: MTT assay, FIG. 7
Protocol: By MTT assay, anticancer effects were confirmed based on viability of tumor cells. That is, cells were incubated in 0.5 mg/ml of MTT solution for 4 hours at a temperature of 37° C. for a reaction, and then, formazen products formed therefrom were dissolved in dimethyl sulfoxide (DMSO). Then, absorbance thereof was measured at 540 nm by using a spectrometer.

DX2-p14/ARF binding = molecular target: T1, DX2-p14/ARF binding (Homo sapiens, UniProt Q13155); assay: GST pull-down assay of DX2-p14/ARF binding; conditions: FIG. 2A, 3A, 3D, 3E
T1 construct: made in house; host or cells: E. coli BL21(DE3) for GST-p14/ARF; DX2 from 'cell lysate or recombinant protein'
T1 sequence (Q13155 1-251 isoform Q13155-2): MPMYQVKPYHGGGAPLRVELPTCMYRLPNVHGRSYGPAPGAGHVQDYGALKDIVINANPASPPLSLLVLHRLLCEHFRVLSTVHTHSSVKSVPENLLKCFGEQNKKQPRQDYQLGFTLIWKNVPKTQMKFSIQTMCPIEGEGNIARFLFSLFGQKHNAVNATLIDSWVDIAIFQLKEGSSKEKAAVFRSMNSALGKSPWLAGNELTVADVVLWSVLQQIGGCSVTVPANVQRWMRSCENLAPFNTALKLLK
Description: (§1) Through GST pull-down assays, more specific binding inhibitors were selected among the previously screened candidate drugs as DX2-p14/ARF binding inhibitors. That is, a p14/ARF fragment (full-length) was ligated into EcoRI and Hind II sites of pGEX-TEV vector, which is a modified vector by adding a TEV protease cleavage site to pGEX-4T1. The recombinant proteins were then expressed in E. coli strain BL21(DE3) as GST-fusion proteins. The proteins were purified by glutathione affinity chromatography.
(§2) To address direct binding between the two proteins, agarose-bead conjugated GST (negative control) or GST-target protein was incubated with cell lysate or recombinant protein in radioimmunoprecipitation assay (RIPA) buffer (NaCl, 25 mM Tris-Cl, 1% NP-40, 1% sodium deoxycholate, 0.1% SDS, protease inhibitor mixture) for 1 hour at a temperature of 4° C. for a reaction.

p53-p14/ARF interaction = molecular target: T2, p53-p14/ARF interaction (Homo sapiens, UniProt P04637+Q8N726); assay: GST pull-down assay, selectivity: p53-p14/ARF interaction; type: binding; conditions: FIG. 3D, 3E
T2 construct: a p14/ARF fragment (full-length) was ligated into EcoRI and Hind II sites of pGEX-TEV vector; made in house; host or cells: E. coli BL21(DE3) for GST-p14/ARF
T2 sequence (Q8N726 whole entry, the tested form may be a part): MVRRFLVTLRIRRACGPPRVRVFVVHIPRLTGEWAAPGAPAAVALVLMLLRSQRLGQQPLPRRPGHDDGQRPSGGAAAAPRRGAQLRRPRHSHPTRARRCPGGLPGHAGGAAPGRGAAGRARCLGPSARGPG
T2 sequence (P04637 whole entry, the tested form may be a part): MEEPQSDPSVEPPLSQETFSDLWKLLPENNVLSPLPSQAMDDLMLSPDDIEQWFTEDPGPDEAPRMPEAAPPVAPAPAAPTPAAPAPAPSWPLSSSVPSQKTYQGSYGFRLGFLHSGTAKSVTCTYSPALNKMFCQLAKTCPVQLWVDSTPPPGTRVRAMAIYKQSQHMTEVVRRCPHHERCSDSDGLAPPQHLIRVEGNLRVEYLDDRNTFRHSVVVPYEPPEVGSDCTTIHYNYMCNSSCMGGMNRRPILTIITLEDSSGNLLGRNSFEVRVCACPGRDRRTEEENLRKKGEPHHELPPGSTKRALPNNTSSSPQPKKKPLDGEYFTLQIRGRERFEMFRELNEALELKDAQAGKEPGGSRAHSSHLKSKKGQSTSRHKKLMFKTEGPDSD
Description: as §1, §2

| Compound | anticancer effect, Adriamycin alone (lung tumors of DK mice) | toxicity, Adriamycin alone (H446 xenograft; Adriamycin 5 mg/kg, three times/week) | tumor growth, Adriamycin alone (H446 xenograft; Adriamycin 5 mg/kg, three times/week, FIG. 9B) | response of H446 xenograft model (H446 xenograft; single agents, FIG. 9A) | viability of H128 cells [1] | inhibitory effect on DX2-p14/ARF binding (DX2-p14/ARF binding) | effect on interaction of p53-p14/ARF (p53-p14/ARF interaction) | melting point [°C] |
| --- | --- | --- | --- | --- | --- | --- | --- | --- |
| COc1cccc2c1C(=O)c1c(O)c3c(c(O)c1C2=O)C[C@@](O)(C(=O)CO)C[C@@H]3O[C@H]1C[C@H](N)[C@H](O)[C@H](C)O1 [Adriamycin, reference compound] | did not show anticancer effect | evoked rapid weight loss and death | tumor growth was suppressed within 4 weeks | resistant | – | – | – | – |
| CC1(C)Oc2cc3oc(=O)ccc3cc2C[C@H]1OC(=O)N/C=C/c1ccco1 [HJH141204, (7R)-(−)-2-(Furan-2-yl)vinylcarbamic Acid, 8,8-dimethyl-2-oxo-6,7-dihydro-2H,8H-pyrano[3,2-g]chromen-7-yl-ester] | – | – | – | – | reduced the viability of H128 cells in a dose-dependent manner | showed inhibitory effects on DX2-p14/ARF binding | did not affect the interaction of p53-p14/ARF | – |
| CC1(C)Oc2cc3oc(=O)ccc3cc2C[C@@H]1OC(=O)N/C=C/c1ccco1 [HJH141206, (7S)-(+)-2-(Furan-2-yl)vinylcarbamic acid, 8,8-dimethyl-2-oxo-6,7-dihydro-2H, 8H-pyrano[3,2-g]chromen-7-yl-ester] | – | – | – | – | reduced the viability of H128 cells in a dose-dependent manner | showed inhibitory effects on DX2-p14/ARF binding | did not affect the interaction of p53-p14/ARF | 58.5 |
| COc1cc(/C=C/C(=O)O[C@H]2Cc3cc4ccc(=O)oc4cc3OC2(C)C)ccc1O [SLCB36, reference compound] | – | – | – | – | did not significantly affect the cell viability | did not show inhibitory effect on both binding | did not show inhibitory effect on both binding | – |
